Measurements: ChEMBL document CHEMBL5053510, “Discovery of AS-1763: A Potent, Selective, Noncovalent, and Orally Available Inhibitor of Bruton's Tyrosine Kinase” (J Med Chem, 2021)
Activity calls are given as the source filed them. The calls are words filed in the database; no cut-off is given here.

Columns and labels:
[1] = biological target: T1, Proto-oncogene tyrosine-protein kinase Src (Homo sapiens, UniProt P12931); assay: Inhibition of human full length SRC expressed in baculovirus expression system at 0.3 uM by mobility shift assay
T1 sequence (P12931 2-536 limits assumed): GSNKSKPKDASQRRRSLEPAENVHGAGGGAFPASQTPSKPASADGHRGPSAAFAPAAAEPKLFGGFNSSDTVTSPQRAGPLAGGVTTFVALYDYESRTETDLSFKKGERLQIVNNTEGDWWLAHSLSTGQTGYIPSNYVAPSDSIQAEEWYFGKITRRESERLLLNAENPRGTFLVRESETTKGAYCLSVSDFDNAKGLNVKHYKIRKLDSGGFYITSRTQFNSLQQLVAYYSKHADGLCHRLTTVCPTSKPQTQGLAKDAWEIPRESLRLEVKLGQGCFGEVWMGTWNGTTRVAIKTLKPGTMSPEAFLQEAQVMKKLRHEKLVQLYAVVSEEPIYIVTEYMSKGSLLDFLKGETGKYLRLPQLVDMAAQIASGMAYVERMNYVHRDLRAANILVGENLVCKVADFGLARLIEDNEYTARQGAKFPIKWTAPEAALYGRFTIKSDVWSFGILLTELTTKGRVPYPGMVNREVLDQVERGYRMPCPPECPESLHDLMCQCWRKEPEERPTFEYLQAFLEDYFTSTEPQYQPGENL

[2] = Volume of distribution at steady state in mouse at 2 mg/kg, iv; assay type: ADME, organism-based; details: in vivo, read-out: Vdss
[3] = AUC (0 to last) in rat at 15 mg/kg, po; assay type: ADME, organism-based; set-up: time 0 - last, dose 15 mg/kg, route po; details: in vivo
[4] = biological target: Epithelial discoidin domain-containing receptor 1 (Homo sapiens, UniProt Q08345); assay: Inhibition of human DDR1 (444 - 876 residues) expressed in baculovirus expression system by mobility shift assay
Sequence of Epithelial discoidin domain-containing receptor 1 (Q08345 whole entry, the tested form may be a part): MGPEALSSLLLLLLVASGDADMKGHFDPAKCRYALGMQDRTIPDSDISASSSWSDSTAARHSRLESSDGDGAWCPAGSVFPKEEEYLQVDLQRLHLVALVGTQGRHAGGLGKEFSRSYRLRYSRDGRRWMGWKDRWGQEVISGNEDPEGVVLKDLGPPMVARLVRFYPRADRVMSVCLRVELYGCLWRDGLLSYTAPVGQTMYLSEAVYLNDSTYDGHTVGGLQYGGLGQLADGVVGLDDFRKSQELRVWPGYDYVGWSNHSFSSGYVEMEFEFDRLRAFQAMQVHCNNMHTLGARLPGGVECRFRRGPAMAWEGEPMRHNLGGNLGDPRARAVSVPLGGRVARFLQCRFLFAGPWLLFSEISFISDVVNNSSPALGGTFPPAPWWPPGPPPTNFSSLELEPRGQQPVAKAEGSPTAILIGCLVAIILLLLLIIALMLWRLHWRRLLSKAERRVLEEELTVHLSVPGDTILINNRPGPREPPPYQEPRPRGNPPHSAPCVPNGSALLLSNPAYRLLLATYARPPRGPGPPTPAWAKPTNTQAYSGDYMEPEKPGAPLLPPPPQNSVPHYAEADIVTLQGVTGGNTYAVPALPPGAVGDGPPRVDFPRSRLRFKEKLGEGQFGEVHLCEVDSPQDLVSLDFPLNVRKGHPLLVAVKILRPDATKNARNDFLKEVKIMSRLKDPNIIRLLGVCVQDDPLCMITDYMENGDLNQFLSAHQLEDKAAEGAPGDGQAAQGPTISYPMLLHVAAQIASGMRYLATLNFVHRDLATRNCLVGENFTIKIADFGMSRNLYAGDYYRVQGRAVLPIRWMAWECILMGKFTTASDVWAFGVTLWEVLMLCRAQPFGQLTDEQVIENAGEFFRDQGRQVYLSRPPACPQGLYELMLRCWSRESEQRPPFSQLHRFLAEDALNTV

[5] = biological target: T2, Tyrosine-protein kinase BTK (Homo sapiens, UniProt Q06187); assay: Inhibition of human full-length BTK (2 to 659 residues) expressed in baculovirus expression system at 0.3 uM by mobility shift assay
T2 sequence (Q06187 whole entry, the tested form may be a part): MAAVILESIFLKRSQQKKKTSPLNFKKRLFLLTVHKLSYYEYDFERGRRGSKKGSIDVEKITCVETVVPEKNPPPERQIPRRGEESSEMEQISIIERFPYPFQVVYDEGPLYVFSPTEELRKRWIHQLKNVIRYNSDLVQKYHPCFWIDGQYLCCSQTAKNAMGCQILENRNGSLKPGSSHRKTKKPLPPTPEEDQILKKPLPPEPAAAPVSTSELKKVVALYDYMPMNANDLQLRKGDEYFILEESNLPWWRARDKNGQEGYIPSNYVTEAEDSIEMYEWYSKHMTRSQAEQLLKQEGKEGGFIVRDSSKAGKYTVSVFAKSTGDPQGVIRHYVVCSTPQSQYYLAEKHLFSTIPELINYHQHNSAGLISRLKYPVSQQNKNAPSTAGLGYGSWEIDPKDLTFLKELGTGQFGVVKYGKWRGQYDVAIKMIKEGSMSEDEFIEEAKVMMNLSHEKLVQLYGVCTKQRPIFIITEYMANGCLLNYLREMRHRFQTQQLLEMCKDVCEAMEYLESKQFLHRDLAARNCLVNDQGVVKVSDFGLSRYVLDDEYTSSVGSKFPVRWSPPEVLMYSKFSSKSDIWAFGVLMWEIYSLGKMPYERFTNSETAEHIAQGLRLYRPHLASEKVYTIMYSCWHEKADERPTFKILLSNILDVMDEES

[6] = Half life in dog at 5 mg/kg, po; assay type: ADME, organism-based, Canis lupus familiaris; details: in vivo
[7] = Oral bioavailability in dog at 5 mg/kg; assay type: ADME, organism-based, Canis lupus familiaris; details: in vivo
[8] = Plasma protein binding in rat; assay type: ADME, cell-free; details: read-out: PPB (converted)
[9] = MRT (0 to last) in mouse at 15 mg/kg, po; assay type: ADME, organism-based; details: in vivo
[10] = biological target: Muscle, skeletal receptor tyrosine-protein kinase (Homo sapiens, UniProt O15146); assay: Inhibition of human MUSK expressed in baculovirus expression system by mobility shift assay
Cytochrome P450 3A4 = Cytochrome P450 3A4 (Homo sapiens, UniProt P08684); assay: Inhibition of CYP3A4 (unknown origin); assay type: ADME
Sequence of Cytochrome P450 3A4 (P08684 whole entry): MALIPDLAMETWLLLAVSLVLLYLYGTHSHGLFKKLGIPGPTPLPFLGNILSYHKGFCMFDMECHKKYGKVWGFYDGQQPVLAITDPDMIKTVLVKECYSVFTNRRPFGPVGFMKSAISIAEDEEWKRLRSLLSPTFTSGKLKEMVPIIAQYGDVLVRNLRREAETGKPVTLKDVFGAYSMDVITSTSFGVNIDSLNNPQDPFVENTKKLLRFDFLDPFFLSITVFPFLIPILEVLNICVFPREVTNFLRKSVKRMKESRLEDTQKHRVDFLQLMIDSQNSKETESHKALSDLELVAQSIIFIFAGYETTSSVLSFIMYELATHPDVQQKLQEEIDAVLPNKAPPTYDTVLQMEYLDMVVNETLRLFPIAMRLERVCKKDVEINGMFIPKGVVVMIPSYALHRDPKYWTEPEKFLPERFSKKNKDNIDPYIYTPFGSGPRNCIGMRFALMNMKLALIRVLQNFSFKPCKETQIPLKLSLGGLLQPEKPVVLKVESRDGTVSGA

[11] = Initial plasma concentration in rat at 15 mg/kg, po; assay type: ADME, organism-based; details: in vivo
[12] = tested on: Proto-oncogene tyrosine-protein kinase receptor Ret (Homo sapiens), P07949 [S891A]; assay: Inhibition of human RET S891A mutant (658 - 1114) expressed in baculovirus expression system at 0.3 uM by mobility shift assay
Sequence of Proto-oncogene tyrosine-protein kinase receptor Ret (Homo sapiens), P07949 [S891A] (P07949 whole entry S891A): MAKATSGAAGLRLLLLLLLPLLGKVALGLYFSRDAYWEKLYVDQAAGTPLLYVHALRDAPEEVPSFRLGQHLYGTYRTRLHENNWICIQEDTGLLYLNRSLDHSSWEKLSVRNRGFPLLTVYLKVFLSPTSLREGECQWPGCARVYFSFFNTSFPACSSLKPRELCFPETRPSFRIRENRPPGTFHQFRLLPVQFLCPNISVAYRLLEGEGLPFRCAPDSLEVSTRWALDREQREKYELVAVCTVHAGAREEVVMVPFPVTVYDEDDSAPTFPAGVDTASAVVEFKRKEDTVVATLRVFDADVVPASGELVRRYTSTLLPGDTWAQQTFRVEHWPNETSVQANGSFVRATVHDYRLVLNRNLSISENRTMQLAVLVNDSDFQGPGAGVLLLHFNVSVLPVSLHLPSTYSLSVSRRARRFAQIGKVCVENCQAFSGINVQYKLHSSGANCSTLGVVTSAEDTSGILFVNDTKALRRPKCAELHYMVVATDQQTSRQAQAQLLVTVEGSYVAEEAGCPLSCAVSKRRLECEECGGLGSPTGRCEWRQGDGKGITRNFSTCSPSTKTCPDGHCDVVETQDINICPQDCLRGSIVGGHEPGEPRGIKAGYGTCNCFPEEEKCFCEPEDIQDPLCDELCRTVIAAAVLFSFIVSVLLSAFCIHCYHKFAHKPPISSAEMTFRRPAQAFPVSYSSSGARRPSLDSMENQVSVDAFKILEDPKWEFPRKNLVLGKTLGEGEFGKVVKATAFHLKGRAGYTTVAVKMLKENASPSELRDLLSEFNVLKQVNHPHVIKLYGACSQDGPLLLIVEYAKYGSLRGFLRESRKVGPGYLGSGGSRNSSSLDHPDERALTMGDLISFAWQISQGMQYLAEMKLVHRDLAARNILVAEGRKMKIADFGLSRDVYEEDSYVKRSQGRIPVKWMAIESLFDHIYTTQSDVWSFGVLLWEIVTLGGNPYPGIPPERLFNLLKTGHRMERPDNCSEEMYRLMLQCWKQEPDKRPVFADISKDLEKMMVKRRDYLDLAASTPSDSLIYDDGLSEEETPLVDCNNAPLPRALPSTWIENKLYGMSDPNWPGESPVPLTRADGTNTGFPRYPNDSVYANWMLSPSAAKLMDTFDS

Cytochrome P450 2D6 = Cytochrome P450 2D6 (Homo sapiens, UniProt P10635); assay: Inhibition of […] (unknown origin); assay type: ADME
[13] = MRT (0 to last) in rat at 15 mg/kg, po; assay type: ADME, organism-based; details: in vivo
[14] = Initial plasma concentration in dog at 5 mg/kg, po; assay type: ADME, organism-based, Canis lupus familiaris; details: in vivo
[15] = AUC (0 to last) in rat at 2 mg/kg, iv; assay type: ADME, organism-based; set-up: time 0 - last, dose 2 mg/kg, route iv; details: in vivo
[16] = biological target: Muscle, skeletal receptor tyrosine-protein kinase (Homo sapiens) (UniProt O15146); assay: Inhibition of human MUSK expressed in baculovirus expression system at 0.3 uM by mobility shift assay
[17] = MRT (0 to last) in dog at 1 mg/kg, iv; assay type: ADME, organism-based, Canis lupus familiaris; details: in vivo
[18] = Initial plasma concentration in mouse at 15 mg/kg, po; assay type: ADME, organism-based; details: in vivo
[19] = biological target: T1, Proto-oncogene tyrosine-protein kinase Src; assay: Inhibition of human full length SRC expressed in baculovirus expression system by mobility shift assay
[20] = Oral bioavailability in rat at 15 mg/kg; assay type: ADME, organism-based; details: in vivo
[21] = Volume of distribution at steady state in dog at 2 mg/kg, iv; assay type: ADME, organism-based, Canis lupus familiaris; details: in vivo, read-out: Vdss
[22] = Half life in mouse at 2 mg/kg, iv; assay type: ADME, organism-based; details: in vivo
[23] = AUC (0 to last) in dog at 5 mg/kg, po; assay type: ADME, organism-based, Canis lupus familiaris; set-up: time 0 - last, dose 5 mg/kg, route po; details: in vivo
[24] = Plasma protein binding in mouse; assay type: ADME, cell-free; details: read-out: PPB (converted)
[25] = Metabolic stability in mouse hepatocytes assessed as Intrinsic clearance; assay type: ADME, cell-based, Hepatocyte
[26] = biological target: Tyrosine-protein kinase BTK (Mus musculus) (UniProt P35991); assay: Inhibition of BTK in […] mouse blood assessed as reduction in BTK phosphorylation at Tyr223 residue at 15 mg/kg, po measured after 8 hrs; assay type: organism-based
[27] = Metabolic stability in dog hepatocytes assessed as Intrinsic clearance; assay type: ADME, cell-based, Canis lupus familiaris, Hepatocyte
[28] = Clearence in rat at 2 mg/kg, iv; assay type: ADME, organism-based; details: in vivo
Cytochrome P450 2C19 = Cytochrome P450 2C19 (Homo sapiens, UniProt P33261); assay: Inhibition of CYP2C19 (unknown origin); assay type: ADME
Sequence of Cytochrome P450 2C19 (P33261 whole entry, the tested form may be a part): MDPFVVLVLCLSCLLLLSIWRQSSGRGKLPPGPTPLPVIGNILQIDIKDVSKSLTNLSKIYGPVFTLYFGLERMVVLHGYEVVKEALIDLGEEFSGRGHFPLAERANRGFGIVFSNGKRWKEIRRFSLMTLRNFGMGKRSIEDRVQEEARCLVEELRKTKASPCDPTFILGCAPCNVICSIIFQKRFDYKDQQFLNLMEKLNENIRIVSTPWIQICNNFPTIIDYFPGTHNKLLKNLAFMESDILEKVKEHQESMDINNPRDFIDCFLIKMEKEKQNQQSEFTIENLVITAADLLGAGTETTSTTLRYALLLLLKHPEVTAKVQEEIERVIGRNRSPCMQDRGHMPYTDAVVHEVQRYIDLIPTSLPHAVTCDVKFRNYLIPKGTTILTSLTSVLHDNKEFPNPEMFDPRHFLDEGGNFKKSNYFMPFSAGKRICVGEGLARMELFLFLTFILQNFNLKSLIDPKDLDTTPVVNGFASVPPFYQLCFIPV

[29] = biological target: Cytoplasmic tyrosine-protein kinase BMX (Homo sapiens, UniProt P51813); assay: Inhibition of human full-length BMX (1 to 675 residues) expressed in baculovirus expression system by mobility shift assay
[30] = Clearence in dog at 1 mg/kg, iv; assay type: ADME, organism-based, Canis lupus familiaris; details: in vivo
Cytochrome P450 2B6 = Cytochrome P450 2B6 (Homo sapiens, UniProt P20813); assay: Inhibition of CYP2B6 (unknown origin); assay type: ADME
Sequence of Cytochrome P450 2B6 (P20813 whole entry): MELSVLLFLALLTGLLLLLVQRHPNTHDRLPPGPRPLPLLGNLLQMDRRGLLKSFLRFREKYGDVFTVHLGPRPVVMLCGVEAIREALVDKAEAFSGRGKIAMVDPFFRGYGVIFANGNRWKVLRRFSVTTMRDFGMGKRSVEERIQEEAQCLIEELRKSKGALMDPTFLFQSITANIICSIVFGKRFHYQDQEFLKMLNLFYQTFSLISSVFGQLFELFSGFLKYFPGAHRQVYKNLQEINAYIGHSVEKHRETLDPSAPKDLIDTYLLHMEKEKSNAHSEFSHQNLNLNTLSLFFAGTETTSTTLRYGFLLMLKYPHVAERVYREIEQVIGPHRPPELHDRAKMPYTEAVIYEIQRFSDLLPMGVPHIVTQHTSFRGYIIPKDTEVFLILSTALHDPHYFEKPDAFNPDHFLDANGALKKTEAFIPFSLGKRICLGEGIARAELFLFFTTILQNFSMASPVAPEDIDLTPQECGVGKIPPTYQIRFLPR

[31] = MRT (0 to last) in dog at 5 mg/kg, po; assay type: ADME, organism-based, Canis lupus familiaris; details: in vivo
[32] = Apparent permeability of the compound in human Caco-2 cells; assay type: ADME, cell-based
[33] = Initial plasma concentration in rat at 2 mg/kg, iv; assay type: ADME, organism-based
[34] = AUC (0 to last) in mouse at 15 mg/kg, po; assay type: ADME, organism-based; set-up: time 0 - last, dose 15 mg/kg, route po; details: in vivo
[35] = biological target: T2, Tyrosine-protein kinase BTK; assay: Inhibition of human BTK-A using phosphorylated substrate in presence of ATP by microplate reader assay
[36] = Metabolic stability in human hepatocytes assessed as Intrinsic clearance; assay type: ADME, cell-based, Hepatocyte
Mus musculus = species on record: Mus musculus; assay: Toxicity in SCID mouse harboring human OCILY10 cells harboring BTK C481S mutant […] gene assessed as body weight loss; assay type: organism-based

## Nc1nc(-c2cccc(-n3ccc4cc(C5CC5)cc(F)c4c3=O)c2CO)c2cc(C3=CCN(C4COC4)CC3)[nH]c2n1 [MILREBRUTINIB]
[1]
  inhibition: 51.9%
[2]
  Vd: 1.61 L/kg
[3]
  AUC(0-t): 1870 ng·h/mL
[4]
  IC50: 221 nM
[5]
  inhibition: 99.4%
[6]
  half-life: 1.9 h
[7]
  bioavailability: 68.1%
[8]
  fraction unbound: 0.012
[9]
  MRT last: 3.58 h
[10]
  IC50: 306 nM
Cytochrome P450 3A4
  IC50: > 10000 nM
[11]
  C0: 418 ng/mL
[12]
  inhibition: 67%
Cytochrome P450 2D6
  IC50: > 10000 nM
[13]
  MRT last: 4.03 h
[14]
  C0: 896 ng/mL
[15]
  AUC(0-t): 1650 ng·h/mL
[16]
  inhibition: 53.2%
[17]
  MRT last: 1.23 h
[18]
  C0: 1717 ng/mL
[19]
  IC50: 291 nM
[20]
  bioavailability: 15.9%
[21]
  Vd: 1.77 L/kg
[22]
  half-life: 1.12 h
[23]
  AUC(0-t): 2490 ng·h/mL
[24]
  fraction unbound: 0.008
[25]
  CLH: 2.11 mL/min/g
[26]
  inhibition: Active
[27]
  CLH: 1.28 mL/min/g
[28]
  clearance: 20.3 mL/min/kg
Cytochrome P450 2C19
  IC50: > 10000 nM
[29]
  IC50: 8.49 nM
[30]
  clearance: 22.7 mL/min/kg
Cytochrome P450 2B6
  IC50: > 10000 nM
[31]
  MRT last: 2.3 h
[32]
  Papp: 1.42 ×10⁻⁶ cm/s
[33]
  C0: 874 ng/mL
[34]
  AUC(0-t): 8060 ng·h/mL
[35]
  IC50: 0.85 nM
[36]
  CLH: 0.76 mL/min/g
Mus musculus
  Activity: Non-Toxic
